Molecules are shown by their SMILES. Values joined by “and” are separate entries in the source; they are usually repeats but may differ in a detail not shown here. Equal values may be shown once.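 Cells were grown in 96-well plates and exposed to each compound for 48 hours at five concentrations; endpoints were interpolated linearly between bracketing concentrations, or set to the highest concentration if not reached. GI50 marks 50% less growth. TGI: concentration producing complete growth inhibition.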 Some results are limits rather than exact numbers.

One assay concerns SF-295 CNS. Briefly: DTP human tumour cell line panel, 48 h.
`OCc1ccn2c1[C@@H](O)CC2`: the total growth inhibition concentration (TGI) (commonly the concentration at which net growth stops) was more than 100 µM.
Turning to `Cc1[nH]c(/C=C2\C(=O)Nc3ccccc32)c(C)c1CCC(=O)O`, the GI50 (in general, the concentration giving 50% growth inhibition) was 24.9 µM and the TGI is more than 100 µM.
Molecule `c1ccc2c(c1)c1c(c3ccccc32)CN2CCCC2C1` (centres undefined) registered a TGI of more than 35.5 µM.
`NCCSc1nc(-c2ccccc2)c(-c2ccccc2)o1` returned a TGI of more than 100 µM.
As to `O=C(c1ccc(/C=C/c2n[nH]c3ccccc23)cc1)N1CCNCC1`, the GI50 is 3.15 µM and 5.28 µM; the TGI is > 10 µM and 21.9 µM.
Take `CCOC(=O)c1c(NC(=O)c2cccc(C(F)(F)F)c2)sc2c(CN(C)C)c(O)ccc12`: the GI50 is 2.83 µM and the TGI is 9.2 µM.
For `O=C(Nc1ccc(-n2ccc3c(NC(=O)c4ccccc4)nccc32)cc1)Nc1ccc(Cl)c(Cl)c1` the same measures were 0.877 µM and 3.18 µM.
Taken in the same sequence, the figures for `N#CC1=C(N)Oc2cc(O)ccc2C1c1cccc2ccccc12` (centres undefined) were 7.28 µM and 25.6 µM.
Taken in the same sequence, the figures for `C=C1C(=O)O[C@H]2[C@H]1CC/C(COC(=O)/C=C\C(=O)NCc1ccc(Cn3c(=O)sn(CCCC)c3=O)cc1)=C\CC[C@@]1(C)O[C@@H]21` were 1.73 µM and 3.24 µM.

The test system of the next assay is SW-620 colon. In words: DTP human tumour cell line panel, 48 h.
In the case of `C#COc1cccc(Nc2c(C#N)cnc3ncc(NC(=O)CCl)cc23)c1`, the GI50 was 19.8 µM and the TGI is more than 62.5 µM.
Take `CN(CCO)c1ccc(N2Cc3ccccc3OC3=C2C(=O)c2c(O)ccc(O)c2C3=O)cn1`: the GI50 is 0.0728 µM and the TGI is 0.328 µM.
For the molecule `CC[C@H]1CN2CCc3cc(OC)c(OC)cc3[C@@H]2C[C@@H]1C[C@H]1NCCc2c1[nH]c1ccc(O)cc21`, the GI50 was 0.0286 µM and 0.0339 µM.
On to `CCCCCOc1ccc(/C=N/Nc2cc(C)nc3ccc(Br)cc23)cc1`, for which the GI50 was 1.92 µM and the TGI was 3.63 µM.
Taken in the same sequence, the figures for `CC(=O)Oc1ccccc1C(=O)Nc1ncc([N+](=O)[O-])s1` were 2.76 µM and more than 100 µM.
Taken in the same sequence, the figures for `O=C1NC(=O)C(c2cccc([N+](=O)[O-])c2)=C1Nc1cc(Cl)c(O)c(Cl)c1` were more than 25 µM and more than 25 µM.
As for `O=C(O)CC(NC(=O)CP(=O)(O)O)C(=O)O` (centres undefined), the TGI was more than 10000 µM.
On the same count and under the same terms, the result for `OCc1ccn2c1[C@@H](O)CC2` reads more than 100 µM.
Turning to `Cc1[nH]c(/C=C2\C(=O)Nc3ccccc32)c(C)c1CCC(=O)O`, the GI50 is 18.8 µM; the TGI was 52.8 µM and 71.1 µM.
`c1ccc2c(c1)c1c(c3ccccc32)CN2CCCC2C1` (centres undefined) had a TGI of 16.7 µM. This lies in the double-digit micromolar range.
Still for that read-out and setting: the result for `NCCSc1nc(-c2ccccc2)c(-c2ccccc2)o1` reads more than 100 µM.
`O=C(c1ccc(/C=C/c2n[nH]c3ccccc23)cc1)N1CCNCC1`: the GI50 was 1.96 µM and 1.47 µM; the TGI was 4.14 µM and 10.8 µM.
With `CCOC(=O)c1c(NC(=O)c2cccc(C(F)(F)F)c2)sc2c(CN(C)C)c(O)ccc12`, the GI50 is 2.31 µM and the TGI turned out to be 5.53 µM.
For `O=C(Nc1ccc(-n2ccc3c(NC(=O)c4ccccc4)nccc32)cc1)Nc1ccc(Cl)c(Cl)c1` the same measures were 1.08 µM and 2.51 µM.
Taken in the same sequence, the figures for `N#CC1=C(N)Oc2cc(O)ccc2C1c1cccc2ccccc12` (centres undefined) were 3.95 µM and more than 100 µM.
For `C=C1C(=O)O[C@H]2[C@H]1CC/C(COC(=O)/C=C\C(=O)NCc1ccc(Cn3c(=O)sn(CCCC)c3=O)cc1)=C\CC[C@@]1(C)O[C@@H]21` the same measures were 0.201 µM and 0.443 µM.

A further assay deals with T-47D breast. In words: DTP human tumour cell line panel, 48 h.
For the molecule `C#COc1cccc(Nc2c(C#N)cnc3ncc(NC(=O)CCl)cc23)c1`, the GI50 is 23.3 µM and the concentration for total growth inhibition (TGI) was more than 62.5 µM.
For the molecule `CN(CCO)c1ccc(N2Cc3ccccc3OC3=C2C(=O)c2c(O)ccc(O)c2C3=O)cn1`, the GI50 was 0.176 µM and the TGI is 0.577 µM.
As to `CC[C@H]1CN2CCc3cc(OC)c(OC)cc3[C@@H]2C[C@@H]1C[C@H]1NCCc2c1[nH]c1ccc(O)cc21`, the GI50 was 0.0233 µM; the TGI is 0.0897 µM and 0.0583 µM.
Take `CCCCCOc1ccc(/C=N/Nc2cc(C)nc3ccc(Br)cc23)cc1`: the GI50 is 1.81 µM and the TGI was 3.89 µM.
For the molecule `CC(=O)Oc1ccccc1C(=O)Nc1ncc([N+](=O)[O-])s1`, the GI50 was 2.88 µM; the TGI was > 26.6 µM and 60.3 µM.
As for `O=C1NC(=O)C(c2cccc([N+](=O)[O-])c2)=C1Nc1cc(Cl)c(O)c(Cl)c1`, the GI50 is more than 25 µM and the TGI was more than 25 µM.
Molecule `O=C(O)CC(NC(=O)CP(=O)(O)O)C(=O)O` (centres undefined) yielded a TGI of more than 10000 µM.
Same read-out and setting: the same measure for `OCc1ccn2c1[C@@H](O)CC2`: more than 100 µM.
`Cc1[nH]c(/C=C2\C(=O)Nc3ccccc32)c(C)c1CCC(=O)O`: the TGI was more than 100 µM.
On to `c1ccc2c(c1)c1c(c3ccccc32)CN2CCCC2C1` (centres undefined), for which the TGI was more than 100 µM.
Still for that read-out and setting: the same measure for `NCCSc1nc(-c2ccccc2)c(-c2ccccc2)o1`: more than 100 µM.
For `O=C(c1ccc(/C=C/c2n[nH]c3ccccc23)cc1)N1CCNCC1`, the GI50 is 19.5 µM and the TGI came out at 47.1 µM.
Regarding `CCOC(=O)c1c(NC(=O)c2cccc(C(F)(F)F)c2)sc2c(CN(C)C)c(O)ccc12`, the GI50 was 3.74 µM and the TGI was determined as 21.4 µM.
For `O=C(Nc1ccc(-n2ccc3c(NC(=O)c4ccccc4)nccc32)cc1)Nc1ccc(Cl)c(Cl)c1` the same measures were 2.03 µM and 5.33 µM.
Taken in the same sequence, the figures for `N#CC1=C(N)Oc2cc(O)ccc2C1c1cccc2ccccc12` (centres undefined) were 17.2 µM and 58.7 µM.
Taken in the same sequence, the figures for `C=C1C(=O)O[C@H]2[C@H]1CC/C(COC(=O)/C=C\C(=O)NCc1ccc(Cn3c(=O)sn(CCCC)c3=O)cc1)=C\CC[C@@]1(C)O[C@@H]21` were 1.27 µM and 4.22 µM.

The record behind these values is PubChem BioAssay (NCI).
